Where two headings read alike, the source gives them in different places.
Key:
[1] = log P by HPLC on reversed-phase column (C18), EEC directive 79/831 Annex V.A8; type: physicochemical
[2] = system: green peach aphid (Myzus persicae); test: Myzus persicae spray test (MYZUPE), comparison with prior art; type: in vivo; settings: for Emax at 100 g/ha: Myzus persicae, read-out: % efficacy
Description: Myzus persicae—Spray Test (MYZUPE)
Emulsifier: alkylaryl polyglycol ether
(§1) After the desired period of time (dat), the efficacy in % is determined. 100% means that all the aphids have been killed; 0% means that no aphids have been killed.

[3] = system: green peach aphid (Myzus persicae); test: Myzus persicae spray test (Chinese cabbage leaf discs); type: in vivo; settings: for pest or weed control at 500 g/ha: Myzus persicae, foliar, read-out: efficacy in %
Description: Myzus persicae—Spray Test
To produce a suitable active ingredient formulation, 1 part by weight of active ingredient is dissolved with the stated parts by weight of solvent and made up with water containing an emulsifier concentration of 1000 ppm until the desired concentration is attained. To produce further test concentrations, the formulation is diluted with emulsifier-containing water.
After 5-6 days, the efficacy in % is determined. 100% means that all the aphids have been killed; 0% means that no aphids have been killed.

[4] = system: green peach aphids (Myzus persicae); test: Myzus persicae oral test (MYZUPE O), comparison with prior art; type: in vivo; settings: for Emax at 4 ppm / Emax at 0.8 ppm: Myzus persicae, po, read-out: % efficacy
Description: Myzus persicae—Oral Test (MYZUPE O)
(§2) Solvent: 100 parts by weight of acetone
50 μl of the active compound preparation are transferred into microtitre plates and made up to a final volume of 200 μl with 150 μl of IPL41 insect medium (33%+15% sugar). Subsequently, the plates are sealed with parafilm, which a mixed population of green peach aphids (Myzus persicae) within a second microtitre plate is able to puncture and imbibe the solution through it.
as §1

[5] = system: green peach aphids (Myzus persicae); test: Myzus persicae oral test; type: in vivo; settings: for pest or weed control at 20 ppm: Myzus persicae, 120 h, read-out: efficacy in %
Description: as §2
Subsequently, the plates are sealed with parafilm, which a mixed population of green peach aphids (Myzus persicae) within a second microtitre plate is able to puncture and imbibe the solution through it.
After 5 days, the efficacy in % is determined. 100% means that all the aphids have been killed; 0% means that no aphids have been killed.

[6] = system: greenhouse red spider mite (Tetranychus urticae); test: Tetranychus urticae spray test, OP-resistant; type: in vivo; settings: application rate 500 g/ha, after 6 days, bean leaf discs; 100% = all spider mites killed
Description: Tetranychus urticae—Spray Test, OP-Resistant
After 6 days, the efficacy in % is determined. 100% means that all the spider mites have been killed; 0% means that no spider mites have been killed.

[7] = reversed-phase HPLC column (C18), neutral range, pH 7.8, HPLC C18, 43° C., Table 1, read-out: logP [n]
[8] = 120 h, MYZUPE, 100 g of ai/ha, 5 dat
[9] = application rate 500 g/ha, after 5-6 days, Chinese cabbage leaf discs, 100% = all aphids killed
[10] = application rate 20 ppm, after 5 days, oral, 100% = all aphids killed
[11] = 120 h, MYZUPE O, 0.8 ppm, 5 dat
[12] = neutral range, pH 7.8, HPLC C18, 43° C., Table 1

| Compound | chromatographic logP [1, 7] | logP [n] ([1]; pH 7.8) | pest or weed control at 500 g/ha [3, 9] [%] | pest or weed control at 20 ppm [5, 10] [%] | efficacy in % [3, 9] [%] | efficacy in % [5, 10] [%] | other results |
| --- | --- | --- | --- | --- | --- | --- | --- |
| CCN(C(=O)c1cnc(C=NOC)n1C)c1cccnc1 [I-1-044] | 1.29 |  | 100 |  |  |  | Emax at 100 g/ha [2, 8]: 90%; Emax at 4 ppm ([4]; 120 h, MYZUPE O, 4 ppm, 5 dat): 100% |
| CN(C(=O)c1cnc(/C=N/OCc2cccnc2)n1C)c1cccnc1 [I-1-024] | 1.24 |  |  | 100 |  |  | Emax at 4 ppm ([4]; 144 h, MYZUPE O, 4 ppm, 6 dat): 90% |
| CCN(C(=O)c1cnc(C=NN(C)C(=O)OC)n1C)c1cccnc1 [I-1-045] |  |  | 90 | 100 |  |  | chromatographic logP ([1]; neutral range, pH 7.8, HPLC C18, 43° C., Table 1, read-out: logP [n]): 1.28; Emax at 100 g/ha [2, 8]: 90%; Emax at 4 ppm ([4]; 120 h, MYZUPE O, 4 ppm, 5 dat): 100% |
| CN(C(=O)c1cnc(/C=N/OCc2ccc(Cl)cc2)n1C)c1cccnc1 [I-1-010] |  | 2.43 |  |  | 90 | 90 | efficacy in % [6]: 90% |
| CN(C(=O)c1cnc(/C=N/OCC2CC2)n1C)c1cccnc1 [I-1-008, 2-[(E)-(Cyclopropylmethoxyimino)methyl]-N,1-dimethyl-N-(pyridin-3-yl)-1H-imidazole-5-carboxamide] |  |  | 100 | 100 |  |  | chromatographic logP ([1]; reversed-phase HPLC column (C18), neutral range, pH 7.8, HPLC C18, 43° C., preparation examples, read-out: log P[n]): 1.78; efficacy in % [6]: 90% |
| CCOC(=O)c1ncc(C(=O)N(C)c2cccnc2)n1C [I-1-025] | 1.1 |  |  |  |  |  | Emax at 100 g/ha [2]: 90%; pest or weed control at 500 g/ha [3]: 90%; Emax at 0.8 ppm ([4]; 120 h): 90%; Emax at 4 ppm ([4]; 120 h): 100%; pest or weed control at 20 ppm ([5]; po): 100% |
| CN(C(=O)c1cnc(C(=O)Nc2ccccc2)n1C)c1cccnc1 [I-1-047] | 1.82 |  | 100 | 100 |  |  | Emax at 100 g/ha [2, 8]: 90%; Emax at 4 ppm ([4]; 120 h, MYZUPE O, 4 ppm, 5 dat): 100% |
| CN(C)C(=O)c1ncc(C(=O)N(C)c2cccnc2)n1C [I-1-033] | 0.6 |  | 100 | 100 |  |  | Emax at 100 g/ha [2, 8]: 90%; Emax at 0.8 ppm [4, 11]: 100%; Emax at 4 ppm ([4]; 120 h, MYZUPE O, 4 ppm, 5 dat): 100% |
| C=CCO/N=C/c1ncc(C(=O)N(C)c2cccnc2)n1C [I-1-012] |  | 1.55 |  |  | 90 | 100 |  |
| COCC1COC(c2ncc(C(=O)N(C)c3cccnc3)n2C)O1 (stereo not shown) [I-1-009] |  | 0.95 |  |  | 90 | 100 |  |
| CC(=O)c1ncc(C(=O)N(C)c2cccnc2)n1C [I-1-085] |  |  |  |  | 90 | 100 | logP [n] [1, 12]: 0.87 |
| CCN(C(=O)c1cnc(/C=N/OCC2CC2)n1C)c1cccnc1 [I-1-042] |  | 1.86 |  |  | 100 | 100 |  |
| COCCOC(=O)N/N=C/c1ncc(C(=O)N(C)c2cccnc2)n1C [I-1-049] |  | 1.26 |  |  | 90 | 100 |  |
| CN(C(=O)c1cnc(C2OCCO2)n1C)c1cccnc1 [I-1-002] |  | 0.73 |  |  | 90 | 100 |  |
| CC(C)O/N=C/c1ncc(C(=O)N(C)c2cccnc2)n1C [I-1-005] |  | 1.7 |  |  | 100 | 100 |  |
| CCC1COC(c2ncc(C(=O)N(C)c3cccnc3)n2C)O1 (stereo not shown) [I-1-011] |  | 1.3 |  |  | 90 | 100 |  |
| COC(=O)c1ncc(C(=O)N(C)c2cccnc2)n1C [I-1-026, Methyl 1-methyl-5-[methyl(pyridin-3-yl)carbamoyl]-1H-imidazol-2-carboxylate] | 0.42 |  | 90 | 100 |  |  | chromatographic logP ([1]; acidic range, pH 2.7, HPLC C18, 43° C., preparation examples, read-out: log P[a]): 0.53; chromatographic logP ([1]; neutral range, pH 7.8, HPLC C18, 43° C., preparation examples, read-out: log P[n]): 0.84 |
| CCN(C(=O)c1cnc(C2OCC(C)(C)CO2)n1C)c1cccnc1 [I-1-040] |  | 1.61 |  |  | 90 | 100 |  |
| CC1COC(c2ncc(C(=O)N(C)c3cccnc3)n2C)O1 (stereo not shown) [I-1-014] |  | 1.02 |  |  | 100 | 100 |  |
| CCCO/N=C/c1ncc(C(=O)N(CC)c2cccnc2)n1C [I-1-043] |  | 1.85 |  |  | 90 | 100 |  |
| CCOC(=O)N(C)/N=C/c1ncc(C(=O)N(C)c2cccnc2)n1C [I-1-019] |  | 1.33 |  |  | 90 | 100 |  |
| CN(/N=C/c1ncc(C(=O)N(C)c2cccnc2)n1C)C(=O)OC(C)(C)C [I-1-038] |  | 1.82 |  |  | 90 | 100 |  |
| Cc1ccc(N(C)C(=O)c2cnc(C(=O)N(C)C)n2C)cn1 [I-1-080] |  |  |  |  | 90 | 100 | logP [n] [1, 12]: 0.81 |

Second part, led by results:

| chromatographic logP [1, 7] | logP [n] ([1]; pH 7.8) | Compound | pest or weed control at 500 g/ha [3, 9] [%] | pest or weed control at 20 ppm [5, 10] [%] | efficacy in % [3, 9] [%] | efficacy in % [5, 10] [%] | other results |
| --- | --- | --- | --- | --- | --- | --- | --- |
| 1.02 |  | CN(C)C(=O)c1ncc(C(=O)N(c2cccnc2)C2CC2)n1C [I-1-083] | 90 | 90 |  |  | Emax at 100 g/ha [2, 8]: 90% |
| 0.73 |  | CN(C(=O)c1cnc(C(=O)N2CCOCC2)n1C)c1cccnc1 [I-1-059] | 100 | 100 |  |  | Emax at 100 g/ha [2, 8]: 100%; Emax at 4 ppm ([4]; 120 h, MYZUPE O, 4 ppm, 5 dat): 100% |
| 1.75 |  | CN(C(=O)c1cnc(C(=O)NCc2ccccc2)n1C)c1cccnc1 [I-1-050] | 90 | 100 |  |  | Emax at 100 g/ha [2, 8]: 90%; Emax at 0.8 ppm [4, 11]: 90%; Emax at 4 ppm ([4]; 120 h, MYZUPE O, 4 ppm, 5 dat): 90% |
|  | 1.42 | 2-(Ethylcarbamothioyl)-N,1-dimethyl-N-(pyridin-3-yl)-1H-imidazole-5-carboxamide [I-1-056] |  |  | 100 | 100 | % efficacy ([2]; MYZUPE, 100 g of ai/ha, 5 dat): 100%; % efficacy ([4]; MYZUPE O, 0.8 ppm, 5 dat): 100%; % efficacy ([4]; MYZUPE O, 4 ppm, 5 dat): 100% |
| 0.86 |  | CCn1c(C(=O)N(C)c2cccnc2)cnc1C(=O)N(C)C [I-1-074] | 100 | 90 |  |  | Emax at 100 g/ha [2, 8]: 90%; Emax at 0.8 ppm [4, 11]: 100%; Emax at 4 ppm ([4]; 120 h, MYZUPE O, 4 ppm, 5 dat): 100% |
| 0.78 |  | CN(C(=O)c1cnc(C(=O)NCC#N)n1C)c1cccnc1 [I-1-076] | 100 | 100 |  |  | efficacy in % [6]: 90%; Emax at 100 g/ha [2, 8]: 90%; Emax at 0.8 ppm [4, 11]: 90%; Emax at 4 ppm ([4]; 120 h, MYZUPE O, 4 ppm, 5 dat): 90% |
| -0.2 |  | CN(C(=O)c1cnc(C(=O)NS(C)(=O)=O)n1C)c1cccnc1 [I-1-070] |  | 90 |  |  | Emax at 0.8 ppm [4, 11]: 100% |
| 1.02 |  | CN(C(=O)c1cnc(C(=O)N2CCCC2)n1C)c1cccnc1 [I-1-054, N,1-Dimethyl-N-(pyridin-3-yl)-2-(pyrrolidin-1-ylcarbonyl)-1H-imidazole-5-carboxamide] | 100 | 100 |  |  |  |
|  | 1.03 | CN(C(=O)c1cnc(C(=O)NC2(C#N)CC2)n1C)c1cccnc1 [I-1-073] |  |  | 100 | 100 |  |
|  | 1.06 | CN(C(=O)c1cnc(C(=O)NC2CC2)n1C)c1cccnc1 [I-1-062] |  |  | 100 | 100 |  |
|  | 0.94 | COCCNC(=O)c1ncc(C(=O)N(C)c2cccnc2)n1C [I-1-064] |  |  | 90 | 100 |  |

Reference: patent US20190045783A1, “SUBSTITUTED IMIDAZOLYLCARBOXAMIDES AS PESTICIDES” (BAYER CROPSCIENCE AKTIENGESELLSCHAFT, priority 2016, published 2019)
